# Laboratory results reported in patent publication US7271198B2, “Method of treating autoimmune diseases” (Wake Forest University, priority 2000, dated 2007).
# What was measured:
# IL-6 mRNA = IL-6 mRNA in MRL/lpr splenocytes; format: cell-based, mouse
# Procedure: In determining whether TSA or SAHA down-regulate IL-6 mRNA content, splenocytes from 24-wk MRL/lpr mice were treated with increasing concentrations of TSA for 18 hr. […] TSA decreased IL-6 transcript at a concentration of 100 ng/ml and exerted maximal inhibition at 300 ng/ml. To address whether TSA and SAHA down-regulate LPS- and IFN-γ induced IL-6 transcript levels, splenocytes from younger MRL/lpr mice were treated in the absence or presence of TSA or SAHA for 18 hr before LPS and IFN-γ stimulation for 6 or 18 hr. […] Next, the effect of TSA and SAHA on IL-6 protein secretion in stimulated splenocytes was measured (FIG. 10D). When splenocytes were cultured with LPS and IFN-γ for 72 hr, there was a mean (±SEM) 34.4±7.6 pg/ml of IL-6 protein secretion.
# [1] = test system: acetylated histones H3 and H4 in the TGF-β1 promoter; experiment: Chromatin immunoprecipitation (ChIP) assay, TGF-β1 gene promoter; format: cell-based, human
# Description: The effect of HDAC inhibition on the acetylation of H3 or H4 associated with the TGF-β1 gene promoter was examined using the chromatin immunoprecipitation (ChIP) assay in an attempt to determine if HDIs induce accumulation of acetylated histones in chromatin associated with the TGF-β1 promoter in SLE PBMCs but not in healthy normal controls. The study undertaken included immunoprecipitating formaldehyde cross-linked, sonicated chromatin fragments from vehicle- and HDI-treated cells using anti-acetyl H3 and H4 antibodies, respectively. The immunoprecipitated DNA released from the bound protein was analyzed by quantitative PCR. A series of primer sets encompassing the TGF-β1 gene from −1.4 kbp to +0.6 kbp relative to the start site of transcription were created (FIG. 6A). Approximately a 12- and 4-fold enhancement of acetylated histones H3 and H4, respectively, in the TGF-β1 promoter in SLE was observed (FIGS. 6B & 6C).
# To determine whether this effect was selective for the TGF-β1 gene in SLE PBMCs, the level of histone acetylation in the glucose-6-phosphate dehydrogenase (G6PD) gene was also examined. As shown in FIGS. 6E & 6F, there was no change in the levels of acetylated histones H3 and H4 at the G6PD gene in SLE PBMCs.
# MRL/lpr mice = experiment: In vivo TSA in 12 wk MRL/lpr mice (0.5 mg/kg sc, 4 weeks); parameters: species or system mouse
# Procedure: TSA was administered to MRL/lpr mice at 12 wks of age coinciding with the time of onset of clinical disease. TSA was given subcutaneously (sc) at a dose of 0.5 mg/kg dissolved in […]; control mice were given the vehicle alone (40 μl DMSO). Proteinuria was assessed as a measure of albumin in mg/mouse/day prior to the initial dose (at 12 wks of age) and after four wks of treatment (at 16 wks of age). […] After four weeks of treatment, nine mice in each group were sacrificed. At necropsy, the weight of the spleens were measured and sera was collected. […] IFN-γ was measured by ellispot assay in splenocytes isolated from vehicle or TSA treated mice.
# TSA was administered to MRL/lpr mice at 12 wks of age at the time of onset of clinical disease. TSA was given subcutaneously (sc) at a dose of 0.5 mg/kg dissolved in 40 μl DMSO; control mice were given the vehicle alone (40 μl DMSO). After four weeks of treatment, nine mice in each group were sacrificed. One-half of one kidney was fixed in 10% formaldehyde/PBS, embedded in paraffin, and stained with hematoxylin and eosin. An examiner blinded to the treatment group quantified disease activity as follows: (a) Glomeruli were graded for hypercellularity (0–4), crescent formation (0–4), and inflammation (0–4). (b) The interstitium was graded for inflammation (0–4). Scores were additive (BALB/c mice historically receive scores of 0–0.5). Half of the second kidney was snap-frozen, embedded in OCT, frozen sections cut and analyzed for C3 deposition by immunofluorescence.
# In determining whether TSA suppresses autoantibody production anti-dsDNA and anti GBM-auto-antibodies were measured.
# mesangial cells = experiment: Nitric oxide production by MRL/lpr mesangial cells; format: cell-based, mouse; conditions: LPS 1 mg/ml, 24 hr
# Description: Excessive production of nitric oxide (NO) is crucial to the initiation and maintenance of glomerulonephritis in MRL/lpr mice. Pharmacologic inhibition of NO synthesis in MRL/lpr mice abrogates disease progression. In examining whether HDIs could suppress inducible nitric oxide synthetase (iNOS), splenocytes from 10 wk old mice were stimulated in the presence or absence of TSA or SAHA with LPS and IFN-γ for 24 hr. […] To determine whether HDIs could suppress nitric oxide secretion by mesangial cells, mesangial cells were stimulated with LPS ([…]) in the presence of vehicle or TSA for 24 hr. The supernatant from the cell culture was assayed for nitric oxide.
# TGF-β1 mRNA = experiment: PCR of TGF-β1 mRNA in SLE and control T cells / PBMCs; format: cell-based, human
# Procedure: Gene expression of TGF-β1 was tested to determine if the gene expression is suppressed by deacetylation of histones in SLE. In this determination, SLE PBMCs or isolated T cells were treated with the histone deacetylase inhibitors (HDIs), TSA or SAHA, for 18hr. […] Subsequently, semi-quantitative PCR was performed to determine the amounts of […] transcripts in SLE and control T cells treated with vehicle or TSA (1000 ng/ml). […] There is no change in GAPDH transcript in normal and SLE T cells after treatment of HDIs. Increased TGF-β1 transcript was associated with a subsequent increase in TGF-β1 protein secretion by SLE PBMCs. When compared to vehicle treated PBMCs, total TGF-β1 protein in culture supernatants from SLE PBMCs increased by approximately 30%. In contrast, there was no increase in total TGF-β1 secretion in TSA treated cells in normal healthy controls. Similar results may be obtained by SAHA.
# [2] = test system: acetylated H3 and H4 histones; experiment: Immunoblot of acetylated H3 and H4 histones in MRL/lpr splenocytes; format: cell-based, mouse; conditions: 18 hr exposure
# Description: One mechanism by which HDIs suppress transcription of cytokine genes in MRL/lpr splenocytes may be by increasing accumulation of acetylated histones which may result in chromatin remodeling. The accumulation of acetylated histones H3 and H4 in HDI-treated splenocytes was quantified to test this hypothesis. FIG. 12 is an immunoblot analysis of the acetylation levels of H3 and H4 histones.
# [3] = splenocytes from 24-wk MRL/lpr mice, 18 hr
# [4] = 0.5 mg/kg sc, 4 weeks treatment
smiles,measurement,setting,value
"CC(/C=C/C(=O)NO)=C\[C@@H](C)C(=O)c1ccc(N(C)C)cc1 [TSA, Trichostatin A]",TSA concentration of maximal inhibition of IL-6 transcript,IL-6 mRNA; [3],300 ng/mL
same,TSA concentration that decreased IL-6 transcript,IL-6 mRNA; [3],100 ng/mL
same,LPS- and IFN-γ induced IL-6 mRNA,"IL-6 mRNA; splenocytes from younger MRL/lpr mice pretreated 18 hr, stimulated 6 or 18 hr",no detectable IL-6 mRNA
same,acetylated state of G6PD gene,[1]; SLE PBMCs,does not change
same,enhancement of acetylated histone H3 in the TGF-β1 promoter,"[1]; SLE PBMCs, ChIP",~12 fold
same,enhancement of acetylated histone H4 in the TGF-β1 promoter,"[1]; SLE PBMCs, ChIP",~4 fold
same,enhancement of acetylated histones H3 and H4 at the TGF-β1 promoter,[1]; normal PBMCs treated with TSA,essentially no enhancement
same,proteinuria (albumin),"MRL/lpr mice; 0.5 mg/kg sc from 12 wks, after four wks, vs vehicle",prevented an increase in proteinuria
same,C3 deposition (kidney immunofluorescence),MRL/lpr mice; [4],did not show change
same,glomerulonephritis and renal score,MRL/lpr mice; [4],significant reduction
same,"number of IFN-γ secreting cells (ellispot, splenocytes)","MRL/lpr mice; 0.5 mg/kg sc, four weeks",significant decrement
same,spleen weight,"MRL/lpr mice; 0.5 mg/kg sc, four weeks, vs vehicle",significantly decreased in weight
same,overall health,"MRL/lpr mice; 0.5 mg/kg sc, vs vehicle",signs of better overall health
same,anti-dsDNA and anti GBM auto-antibodies,"MRL/lpr mice; TSA vs vehicle, 4 weeks treatment",no significant change
same,LPS-induced nitric oxide production,mesangial cells,able to suppress
same,increase in TGF-β1 transcript,TGF-β1 mRNA; SLE PBMCs exposed to TSA and SAHA (summary statement),eight-fold
same,induction of TGF-β1 mRNA compared to vehicle treated cells,"TGF-β1 mRNA; SLE T cells, 1000 ng/ml TSA, 18 hr, real time PCR",8 fold
same,"TGF-β1 mRNA levels, semi-quantitative PCR","TGF-β1 mRNA; SLE T cells, TSA 1000 ng/ml",increased
same,TGF-β1 mRNA change,"TGF-β1 mRNA; SLE T cells, TSA concentrations to 500 ng/ml",modest increase
same,accumulation of acetylated H3 and H4 histones,[2],marked increase
